Here are results for eleven molecules from patent publication US20230339882A1, “SHP2 INHIBITOR AND COMPOSITION AND APPLICATION THEREOF” (Betta Pharmaceuticals Co., Ltd., priority 2020, published 2023).

A short description of series [1]: In vitro metabolic stability in liver microsomes, dog. It counts as in vitro ADME. To be noted: for microsomal CLint at 2 µM: pH 7.3. Background: Microsomes from liver hold many membrane-bound enzymes, among them those of drug oxidation.
The target of another series is SHP2 (Homo sapiens (Human), UniProt Q06124). Kind of series: SHP2 allosteric inhibitory enzyme activity assay (DiFMUP fluorescence). Format: biochemical. As to conditions: read-out: SHP2 enzymatic activity IC50. The method in brief:
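Human SHP2 (0.2 ng) preincubated 1 h at room temperature with 25 µM activating peptide IRS1_pY1172(dPEG8)pY1222 and compound (10-point series from 10 µM) in HEPES/NaCl/KCl/BRIJ-35/EDTA/DTT buffer. DiFMUP then added for 1 h; fluorescence at ex 340/em 450 nm, normalized to no-enzyme and no-inhibitor controls, IC50 from variable-slope fit.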

Series [2] deals with lung cancer cells NCI-H358. Kind of series: Cell proliferation assay, CELL TITER-GLO (CTG) luminescence, NCI-H358. Format: cell-based. To be noted: cultured for 96 hrs. The method in brief: (§1)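 NCI-H358 (2000 cells/well, ultra-low-attachment plates) and MV-4-11 cells were dosed 24 h after seeding at 1000 nM down to 0.1524 nM (3-fold steps). Viable-cell ATP was read by CellTiter-Glo luminescence after 96 h for NCI-H358 and 120 h for MV-4-11. IC50 came from a variable-slope fit of inhibition versus the 0 nM control.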
On the technique in general: In ATP-based viability assays light output follows the ATP content of the culture.

Series [3] can be described thus: In vitro metabolic stability in liver microsomes, human. It counts as in vitro ADME. As to conditions: for microsomal CLint at 2 µM: pH 7.3, read-out: CLint (µL/min/mg protein) human. As for the experimental part:
(§2) Example D: In Vitro Metabolic Stability of Human and Rat Liver Microsomes Test Buffer Preparation
(§3) Dissolve 1900 mg of MgCl2 in 400 mL of ultrapure water.
(§4) Dissolve 17.42 g K2HPO4 and 13.65 g KH2PO4 into 1000 mL of ultrapure water, respectively. Mix a certain proportion of K2HPO4 and KH2PO4 to adjust the pH to 7.30 ± 0.10.
(§5) Prepare a solution of 10 ng/mL labetalol and 10 ng/mL glyburide in acetonitrile and store at 4° C.
(§6) Prepare 10 mM verapamil (positive control) and test article stock solutions in DMSO. Then, with MeOH/ACN/H2O solution (1:1:2 by volume), diluted to 50 µM and 200 µM working solutions, respectively.
(§7) experiment procedure: • 1) Add 40 µL MgCl2 and 306 µL PBS to 96 wells (set blank control group, positive control group, test compound sample group, and negative control group at the same time) • 2) Add 4 µL of compound working solution to each well (4 µL of PBS buffer for blank group) (Note: the final concentration of DMSO volume in the system is ≤ 0.5%) • 3) Add 10 µL of liver microsomes (concentration: 20 mg/mL) to each well, mix well, and pre-incubate at 37° C. for 10 minutes. • 4) Add 40 µL of 10 mM NADPH working solution to each well to start the reaction (add equal volume of PBS buffer for blank control group and negative control group respectively), the total reaction volume is 400 µL. • 5) Take out 50 µL samples from the above reaction solution at 0, 5, 15, and 45 minutes, and add 400 µL of reaction stop solution to stop the reaction • 6) Shake the sample after the termination of the reaction on a shaker for 5 minutes. • 7) Centrifuge the sample at 3200 rcf for 10 minutes. After the centrifugation is complete, transfer 50 µL of the supernatant to 200 µL of H2O for dilution for LC-MS/MS analysis.
(§8) Calculations of t½ and CLint are performed using the first-order kinetic equations: […]
(§9) where k represents the elimination constant, calculated from a log-linear plot of percentage remaining versus time. t½ represents half-life. Cprotein is the concentration of liver microsomes.

The nature of series [4]: In vitro metabolic stability in liver microsomes, mouse. To be noted: for microsomal CLint at 2 µM: pH 7.3, read-out: CLint (µL/min/mg protein) mouse. It counts as in vitro ADME.
The nature of series [5]: In vitro metabolic stability in liver microsomes, monkey. Format: in vitro ADME. As to conditions: for microsomal CLint at 2 µM: pH 7.3, read-out: CLint (µL/min/mg protein) monkey.
A short description of series [6]: In vitro metabolic stability in liver microsomes, rat. Format: in vitro ADME. As to conditions: for microsomal CLint at 2 µM: pH 7.3, read-out: CLint (µL/min/mg protein) rat. How it is done:
as §2, §3, §4, §5, §6, §7, §8, §9

A further series deals with leukemia cells MV-4-11. The series can be described thus: Cell proliferation assay, CELL TITER-GLO (CTG) luminescence, MV-4-11. Format: cell-based. The procedure, abridged: as §1
Where [7] appears, read: Homo sapiens, NCI-H358, ultra-low adsorption plate.
[8] abbreviates: Homo sapiens, MV4-11, cultured for 120 hrs.

Chain of SHP2 (Q06124 whole entry): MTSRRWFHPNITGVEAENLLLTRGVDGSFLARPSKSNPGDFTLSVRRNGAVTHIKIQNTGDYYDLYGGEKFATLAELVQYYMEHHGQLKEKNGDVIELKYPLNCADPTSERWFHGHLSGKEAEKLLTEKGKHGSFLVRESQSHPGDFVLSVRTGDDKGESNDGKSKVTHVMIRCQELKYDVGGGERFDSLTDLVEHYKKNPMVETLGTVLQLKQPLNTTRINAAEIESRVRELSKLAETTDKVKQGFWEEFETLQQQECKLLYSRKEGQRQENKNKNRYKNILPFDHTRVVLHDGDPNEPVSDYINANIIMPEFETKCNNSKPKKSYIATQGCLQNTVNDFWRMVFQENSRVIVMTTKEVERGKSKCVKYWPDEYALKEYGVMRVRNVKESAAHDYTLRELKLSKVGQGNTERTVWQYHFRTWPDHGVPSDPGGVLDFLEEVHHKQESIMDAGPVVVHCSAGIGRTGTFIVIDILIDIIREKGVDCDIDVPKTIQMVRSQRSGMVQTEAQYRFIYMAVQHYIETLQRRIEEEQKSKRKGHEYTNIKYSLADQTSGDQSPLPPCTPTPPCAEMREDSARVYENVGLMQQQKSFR

Broadly, the IC50 is the midpoint of a concentration-inhibition curve. With `NC(=O)c1ccc(OCC#Cc2cnc(N3CCC4(CC3)Cc3ccccc3[C@H]4N)cn2)cc1Cl` [Compound A62, (S)-4-((3-(5-(1-amino-1,3-dihydrospiro[inden-2,4′-piperidin]-1′-yl)pyrazin-2-yl)prop-2-yn-1-yl)oxy)-2-chlorobenzamide], the microsomal CLint at 2 µM in series [1] (dog, microsomes) was 2.9 µL/min/mg; in series [3], 2.6 µL/min/mg; in series [4], 9.7 µL/min/mg; in series [5], 19.2 µL/min/mg; in series [6], 8.1 µL/min/mg. Besides, the IC50 at SHP2 came to 1.5 nM; in series [2] (setting [7]), 56 nM; in the series on leukemia cells MV-4-11 (setting [8]), 14 nM.
Turning to `NC(=O)c1ccc(OCC#Cc2cnc(N3CCC4(CC3)Cc3ccccc3[C@H]4N)c(CO)n2)cc1F` [Compound A50, (S)-4-((3-(5-(1-amino-1,3-dihydrospiro[indene-2,4′-piperidin]-1′-yl)-6-(hydroxymethy 1)pyrazin-2-yl)prop-2-yn-1-yl)oxy)-2-fluorobenzamide], in series [1] (dog, microsomes), the “CLint (µL/min/mg protein) dog” value worked out at 5.2 µL/min/mg protein. Further, the IC50 on SHP2 stood at 1.7 nM; in series [2] (ultra-low adsorption plate), 3.3 nM; with leukemia cells MV-4-11 (cultured for 120 hrs), 2.2 nM. The “CLint (µL/min/mg protein) human” value in series [3] turned out to be 7.4 µL/min/mg protein. Besides, the “CLint (µL/min/mg protein) mouse” value in series [4] turned out to be 3.1 µL/min/mg protein. Also, in series [5], the “CLint (µL/min/mg protein) monkey” value was 5.9 µL/min/mg protein. Moreover, the “CLint (µL/min/mg protein) rat” value in series [6] came out at 11.4 µL/min/mg protein.
As for `N[C@@H]1c2ccccc2CC12CCN(c1ncc(C#CCOc3ccc4c(c3)CNC4=O)nc1CO)CC2` [Compound A51, (S)-5-((3-(5-(1-amino-1,3-dihydrospiro[indene-2,4′-piperidin]-1′-yl)-6-(hydroxymethy 1)pyrazin-2-yl)prop-2-yn-1-yl)oxy)isoindolin-1-one], in series [1] (dog, microsomes), the “CLint (µL/min/mg protein) dog” value is given as 22.2 µL/min/mg protein. Also, the values for the IC50 (on SHP2; in series [2] (ultra-low adsorption plate); in the series on leukemia cells MV-4-11 (cultured for 120 hrs)) were 2.4 nM, 0.8 nM and 1 nM, respectively. Also, the “CLint (µL/min/mg protein) human” value in series [3] is listed as 9.9 µL/min/mg protein. For the same molecule, the “CLint (µL/min/mg protein) mouse” value in series [4] is recorded as 16.7 µL/min/mg protein. In addition, the “CLint (µL/min/mg protein) monkey” value in series [5] came to 26.2 µL/min/mg protein. Further, the “CLint (µL/min/mg protein) rat” value in series [6] stood at 12.5 µL/min/mg protein.
Turning to `NC(=O)c1cccc(NCC#Cc2cnc(N3CCC4(CC3)Cc3ccccc3[C@H]4N)c(CO)n2)c1` [Compound A81, (S)-3-((3-(5-(1-amino-1,3-dihydrospiro[indene-2,4′-piperidin]-1′-yl)-6-(hydroxymethyl)pyrazin-2-yl)prop-2-yn-1-yl)amino)benzamide], the microsomal CLint at 2 µM was 13.5 µL/min/mg in series [1] (dog, microsomes); 14.2 µL/min/mg in series [3]; 11.5 µL/min/mg in series [4]; 4 µL/min/mg in series [5]; 18.4 µL/min/mg in series [6]. For the same molecule, the results for the IC50 (in series [2] (setting [7]); with leukemia cells MV-4-11 (setting [8])) were 6.3 nM and 1.8 nM, respectively.
Regarding `NC(=O)Cn1cc(OCC#Cc2cnc(N3CCC4(CC3)Cc3ccccc3[C@H]4N)c(CO)n2)cn1` [Compound A82, (S)-2-(4-((3-(5-(1-amino-1,3-dihydrospiro[indene-2,4′-piperidin]-1′-yl)-6-(hydroxymethyl)pyrazin-2-yl)prop-2-yn-1-yl)oxy)-1H-pyrazol-1-yl)acetamide], the microsomal CLint at 2 µM was 3.9 µL/min/mg in series [1] (dog, microsomes); 8.6 µL/min/mg in series [3]; 10.5 µL/min/mg in series [4]; 4.5 µL/min/mg in series [5]; 5.3 µL/min/mg in series [6]. The IC50 turned out to be 40 nM in series [2] (setting [7]) and 9 nM with leukemia cells MV-4-11 (setting [8]).
Regarding `Cn1nccc1NCC#Cc1cnc(N2CCC3(CC2)Cc2ccccc2[C@H]3N)c(CO)n1` [Compound A61, (S)-(3-(1-amino-1,3-dihydrospiro[indene-2,4′-piperidin]-1′-yl)-6-(3-((1-methyl-1H-pyrazol-5-yl)amino)prop-1-yn-1-yl)pyrazin-2-yl)methanol], the microsomal CLint at 2 µM in series [1] (dog, microsomes) was determined as 14.5 µL/min/mg; in series [3], 13 µL/min/mg; in series [4], 14.1 µL/min/mg; in series [5] it was 6.1 µL/min/mg; in series [6], 15.9 µL/min/mg. Besides, the values for the IC50 (at SHP2; in series [2] (setting [7]); in the series with leukemia cells MV-4-11 (setting [8])) were 1.8 nM, 9.4 nM and 5.1 nM, respectively.
Take `CN(CC#Cc1cnc(N2CCC3(CC2)Cc2ccccc2[C@H]3N)c(CO)n1)c1ccc(C(N)=O)cc1` [Compound A55, (S)-4-((3-(5-(1-amino-1,3-dihydrospiro[indene-2,4′-piperidin]-1′-yl)-6-(hydroxymethyl)pyrazin-2-yl)prop-2-yn-1-yl)(methyl)amino)benzamide]: the microsomal CLint at 2 µM in series [1] (dog, microsomes) is 20.7 µL/min/mg; in series [3], 14.7 µL/min/mg; in series [4], 14.3 µL/min/mg; in series [5], 20 µL/min/mg; in series [6], 24.7 µL/min/mg. The half-maximal inhibitory concentration (IC50) came to 2.7 nM at SHP2, 26 nM in series [2] (setting [7]) and 9.6 nM with leukemia cells MV-4-11 (setting [8]).
`N[C@@H]1c2ccccc2CC12CCN(c1ncc(C#CCOc3cccc(C(F)(F)F)c3)nc1CO)CC2` [Compound A13]: the “CLint (µL/min/mg protein) dog” value in series [1] (dog liver microsomes) is 0.9 µL/min/mg protein. Further, the results for the IC50 (on SHP2; in series [2] (ultra-low adsorption plate); with leukemia cells MV-4-11 (cultured for 120 hrs)) were 5.8 nM, 28 nM and 18 nM, respectively. The “CLint (µL/min/mg protein) human” value in series [3] was found to be 6.3 µL/min/mg protein. Moreover, the “CLint (µL/min/mg protein) mouse” value in series [4] was determined as 6.6 µL/min/mg protein. In series [5], the “CLint (µL/min/mg protein) monkey” value was found to be 2.6 µL/min/mg protein. Further, the “CLint (µL/min/mg protein) rat” value in series [6] is listed as 2.4 µL/min/mg protein.
Regarding `N[C@@H]1c2ccccc2CC12CCN(c1ncc(C#CCOc3ccc4ccc(=O)[nH]c4c3)nc1CO)CC2` [Compound A24, (S)-7-((3-(5-(1-amino-1,3-dihydrospiro[indene-2,4′-piperidin]-1′-yl)-6-(hydroxymethyl)pyrazin-2-yl)prop-2-yn-1-yl)oxy)quinolin-2(1H)-one], the microsomal CLint at 2 µM in series [1] (dog, microsomes) is 8.8 µL/min/mg; in series [3], 1.6 µL/min/mg; in series [4], 8.3 µL/min/mg; in series [5], 9.9 µL/min/mg; in series [6], 11 µL/min/mg. Besides, the IC50 came to 1.5 nM in series [2] (setting [7]) and 1.3 nM in the series on leukemia cells MV-4-11 (setting [8]).
Consider `N#Cc1ccc(OCC#Cc2cnc(N3CCC4(CC3)Cc3ccccc3[C@H]4N)c(CO)n2)cc1` [Compound A12, (S)-4-((3-(5-(1-amino-1,3-dihydrospiro[indene-2,4′-piperidin]-1′-yl)-6-(hydroxymethyl)pyrazin-2-yl)prop-2-yn-1-yl)oxy)benzonitrile], for which the microsomal CLint at 2 µM in series [1] (dog, microsomes) is 6.2 µL/min/mg; in series [3], 0.2 µL/min/mg; in series [4] it was 8.3 µL/min/mg; in series [5] it was 7.3 µL/min/mg; in series [6] it was 5.5 µL/min/mg. Besides, the IC50 is 7.4 nM in series [2] (setting [7]) and 3.8 nM with leukemia cells MV-4-11 (setting [8]).
Consider `N[C@@H]1c2ccccc2CC12CCN(c1ncc(C#CCOc3ccc(C(O)C(F)(F)F)cc3)nc1CO)CC2` (stereo partly drawn) [Compound A80, 1-(4-((3-(5-((S)-1-amino-1,3-dihydrospiro[indene-2,4′-piperidin]-1′-yl)-6-(hydroxymethyl)pyrazin-2-yl)prop-2-yn-1-yl)oxy)phenyl)-2,2,2-trifluoroethane-1-ol], for which the microsomal CLint at 2 µM stood at 3.1 µL/min/mg in series [1] (dog, microsomes); 2.7 µL/min/mg in series [3]; 9 µL/min/mg in series [4]; 1 µL/min/mg in series [5]; 14 µL/min/mg in series [6]. The figures for the IC50 on SHP2 and with leukemia cells MV-4-11 (setting [8]) were 2.8 nM and 10.4 nM, respectively.
